ChEMBL document CHEMBL5120800, “Lathyrane and Jatrophane Diterpenoids from Euphorbia helioscopia Evaluated for Cytotoxicity against a Paclitaxel-Resistant A549 Human Lung Cancer Cell Line” (J Nat Prod, 2022)

Experiments:
[1] = tested on: A549; assay: Cytotoxicity against human A549 cells assessed as inhibition of cell growth incubated for 72 hrs by MTT assay; type: functional, cell-based; details: A549, 72 h
[2] = Cytotoxicity against human A549/PTX cells assessed as inhibition of cell growth incubated for 72 hrs by MTT assay; type: functional, cell-based

Question: For `CC(=O)O[C@H]1C(=O)[C@@]2(C)[C@H]([C@H](OC(=O)c3ccccc3)[C@]3(O)C[C@H](OC(=O)[C@H](O)[C@@H](NC(=O)c4ccccc4)c4ccccc4)C(C)=C1C3(C)C)[C@]1(OC(C)=O)CO[C@@H]1C[C@@H]2O` [PACLITAXEL], which IC50 [1] is on record?
Answer: 0.0675 µM

Question: With `CC(=O)O[C@]12C[C@@H](C)[C@H](OC(=O)c3ccccc3)[C@@H]1/C=C(\C)[C@H](OC(=O)c1ccccc1)CC(=O)C(C)(C)/C=C/[C@@H](C)C2=O` as the molecule, how does the IC50 [1] read?
Answer: > 10 µM

Question: And the IC50 [2]?
Answer: 7.2 µM

Question: Which IC50 [1] does the source give for `CC(=O)O[C@@H]1[C@H](C)/C=C/C(C)(C)C(=O)C[C@@H](OC(=O)c2cccnc2)/C(C)=C/[C@H]2[C@@H](OC(=O)c3ccccc3)[C@H](C)C[C@]12OC(C)=O` here?
Answer: > 10 µM

Question: And the IC50 [2]?
Answer: 9.5 µM

Question: What does the source list for `CC(=O)O[C@@H]1[C@H](C)/C=C/C(C)(C)C(=O)C[C@@H](OC(=O)c2ccccc2)/C(C)=C/[C@H]2[C@@H](OC(=O)c3ccccc3)[C@H](C)C[C@]12OC(C)=O` [EUPHOSCOPIN C]?
Answer: IC50 [1]: > 10 µM; IC50 [2]: 6.9 µM
